Laboratory results published in patent publication US9399145B2, “Nanoscale neuromodulating platform for retina neuron activation apparatus and method” (The Board of Trustees of the University of Illinois, priority 2005, dated 2016).

Experiments:
[1] = system: GABAARs of isolated bipolar cells of rat retina; assay: Whole-cell recording of isolated retinal bipolar cells; type: cell-based
Description: Data obtained with trans-MPC088 indicated substantial GABAAR potentiating activity by trans-MPC088 (FIG. 61).

[2] = Spectrophotometric and NMR analysis of photoisomerization; type: physicochemical
Procedure: UV and visible light sources of the electrophysiological apparatus were used for the spectrophotometric and NMR experiments. MPC088 samples were analyzed as DMSO solutions in a quartz cuvette (spectrophotometry) and a DMSO-d6 solution in a quartz NMR tube.
To test the stability of cis-MPC088 in darkness, a preparation of 30 μM MPC088 in oocyte Ringer solution that had been converted to predominantly cis form by a 5-min UV illumination was spectrophotometrically analyzed. The sample was subsequently kept in darkness at room temperature.
The UV-induced decrease in membrane current was analyzed by fitting a simple exponential decay function to the waveforms obtained and determining the exponential time constant (τ).

[3] = system: GABAARs of cerebellar PNs; assay: Whole-cell voltage clamp of cerebellar Purkinje neurons in slices, GABA-evoked currents with UV/blue light; type: cell-based, mouse; details: 10 μM GABA + 30 μM MPC088 by pressure pipette
Procedure: To evaluate the efficacy of MPC088 in GABAAR-expressing cells in situ, whole-cell voltage-clamp experiments were conducted on Purkinje neurons (PNs) in parasagittal slices from mouse cerebellum (Häusser et al. (1997); Smith et al. (2003)) (FIG. 40). […] The cell was flashed with UV light (1 s, shuttered from a mercury arc lamp), then blue light (1 s, from a 470 nm LED), and then again with UV light (1 s). […] The magnitude of the UV-to-blue transition was calculated as (B-UV1)/UV1; that of the blue-to-UV transition was calculated as (UV2-B)/UV2. […] For the negative control experiments (i.e., those involving exposure to vehicle or propofol alone) in which no light-evoked current was detectable, current was measured for identical epochs at the terminations of the light pulses.
Experiments on cerebellar PNs employed acute slices obtained from cerebella of 16-30 day-old C57/BL6 mice (Charles River Laboratories). After induction of deep anesthesia with isoflurane, mice were decapitated, and the cerebellum vermis was removed and placed in an ice-cold cutting solution containing (in mM): 85 NaCl, 2.5 KCl, 0.5 CaCl2, 4 MgCl2, 1.25 NaH2PO4, 24 NaHCO3, 25 glucose, and 75 sucrose. A Leica VT1000 vibratome was used to cut 250 μm thick, sagittal slices from the cerebellar vermis. […]

[4] = Hydrophobicity (log P); type: physicochemical
[5] = target: T1, α1β3γ2 GABAAR (UniProt P28472+P62813); assay: Two-electrode voltage clamp of α1β3γ2 GABAAR-expressing oocytes; type: cell-based; details: 1 μM trans-MPC088 with 1 μM GABA (~EC3)
T1 construct: expressed in transfected cells; host or cells: Xenopus oocytes
T1 sequence (P62813 28-455): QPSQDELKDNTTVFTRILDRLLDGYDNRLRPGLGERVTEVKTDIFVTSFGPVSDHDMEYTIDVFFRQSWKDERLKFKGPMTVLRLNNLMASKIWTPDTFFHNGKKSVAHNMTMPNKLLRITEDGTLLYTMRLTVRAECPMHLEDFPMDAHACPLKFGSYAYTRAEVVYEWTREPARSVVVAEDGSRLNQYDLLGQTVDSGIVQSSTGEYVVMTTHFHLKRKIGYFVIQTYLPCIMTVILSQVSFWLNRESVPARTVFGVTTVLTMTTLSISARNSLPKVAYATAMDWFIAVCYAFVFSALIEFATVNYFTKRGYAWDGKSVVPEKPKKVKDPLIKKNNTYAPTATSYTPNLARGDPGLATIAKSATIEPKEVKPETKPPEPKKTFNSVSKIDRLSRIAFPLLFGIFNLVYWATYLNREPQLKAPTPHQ
T1 sequence (P28472 26-473): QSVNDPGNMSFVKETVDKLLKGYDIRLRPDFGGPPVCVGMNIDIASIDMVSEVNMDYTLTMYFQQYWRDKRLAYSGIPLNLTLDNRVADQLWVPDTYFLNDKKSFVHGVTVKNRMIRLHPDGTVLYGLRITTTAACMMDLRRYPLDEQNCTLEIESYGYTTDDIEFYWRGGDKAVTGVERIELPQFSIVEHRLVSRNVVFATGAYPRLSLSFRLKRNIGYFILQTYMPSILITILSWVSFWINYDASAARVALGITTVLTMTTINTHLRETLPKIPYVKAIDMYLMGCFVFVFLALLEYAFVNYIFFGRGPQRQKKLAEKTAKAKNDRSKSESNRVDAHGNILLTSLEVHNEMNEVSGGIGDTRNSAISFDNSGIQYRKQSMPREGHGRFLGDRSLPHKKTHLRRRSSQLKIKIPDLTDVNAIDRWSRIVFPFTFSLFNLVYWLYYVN
T1 sequence (P18507 40-467 isoform P18507-1 partner limits assumed): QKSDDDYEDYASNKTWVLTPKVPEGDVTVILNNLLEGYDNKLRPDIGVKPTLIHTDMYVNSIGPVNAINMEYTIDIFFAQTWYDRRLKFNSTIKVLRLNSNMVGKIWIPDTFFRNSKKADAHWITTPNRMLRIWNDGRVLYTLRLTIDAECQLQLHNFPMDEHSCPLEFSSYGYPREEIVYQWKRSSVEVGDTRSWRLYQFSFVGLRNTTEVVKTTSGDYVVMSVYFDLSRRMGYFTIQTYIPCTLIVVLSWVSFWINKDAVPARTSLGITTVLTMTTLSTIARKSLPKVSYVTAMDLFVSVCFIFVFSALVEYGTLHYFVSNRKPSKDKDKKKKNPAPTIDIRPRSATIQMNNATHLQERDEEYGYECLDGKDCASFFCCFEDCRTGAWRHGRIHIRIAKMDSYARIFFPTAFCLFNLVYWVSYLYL
Description: Propofol is known to modulate GABAA receptors that contain a β subunit. […] Data in each group was obtained from 4 oocytes. […] Aggregate concentration-response data was also obtained from α1β3γ2 (squares) and α4β3δ (circles) receptors with trans-dominant MPC088 alone (FIG. 37b). Data was similarly normalized to the saturating GABA response obtained from each oocyte. Results for α1β2γ2 GABAARs in a and b (triangles) were reproduced from those of FIGS. 35c and 36b, respectively.
The activity of trans-dominant MPC088 was also tested at receptors containing the β-subunit substitution N265M, a mutation that markedly reduces the action of propofol both in vitro and in vivo (Jurd et al. (2003); Siegwart et al. (2002)). […] For each receptor type, illustrated responses are representative data obtained from a single oocyte.

[6] = target: T2, α1β2γ2 GABAARs (rat α1, rat β2 and human γ2S) (UniProt P18507+P62813+P63138); assay: Two-electrode voltage clamp of α1β2γ2 GABAAR-expressing Xenopus oocytes; type: cell-based; details: for rate constant 1/τ of UV-induced decrease in membrane current (de-potentiation): 3 μM GABA and 1 μM MPC088
T2 construct: expressed in transfected cells; host or cells: Xenopus laevis oocytes
T2 sequence (P62813 28-455): as the sequence (P62813 28-455) above
T2 sequence (P63138 25-474 limits assumed): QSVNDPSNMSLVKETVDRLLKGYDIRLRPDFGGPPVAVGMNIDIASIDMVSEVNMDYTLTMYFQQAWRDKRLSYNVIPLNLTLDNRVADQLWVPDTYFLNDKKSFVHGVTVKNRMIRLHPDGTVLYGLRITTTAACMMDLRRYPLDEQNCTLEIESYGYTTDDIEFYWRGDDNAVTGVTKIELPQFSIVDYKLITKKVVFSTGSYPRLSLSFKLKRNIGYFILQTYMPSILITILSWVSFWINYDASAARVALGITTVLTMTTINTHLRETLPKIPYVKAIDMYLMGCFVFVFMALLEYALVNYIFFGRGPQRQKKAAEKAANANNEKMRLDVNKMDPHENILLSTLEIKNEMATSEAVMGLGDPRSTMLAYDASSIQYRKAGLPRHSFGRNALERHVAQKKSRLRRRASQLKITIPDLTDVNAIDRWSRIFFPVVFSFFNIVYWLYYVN
T2 sequence (P18507 40-467 isoform P18507-1 limits assumed): as the sequence (P18507 40-467 isoform P18507-1 partner limits assumed) above
Description: Purple and gray bars indicate periods of presentation of UV light (purple) and high-intensity visible light (High-Vis) (gray), respectively. […] These amplitude determination conditions are denoted by numbers beneath the waveform in FIG. 35d.
In each of the MPC088 experiments, the cis-dominant form was generated by UV light during static bathing. […] Numbers beneath the waveform in FIG. 2(c) denote amplitude determination conditions for that experiment.
Oocytes expressing α1β2γ2 receptors (rat α1, rat β2 and human γ2S) were prepared and studied by two-electrode voltage-clamp recording^58 (holding potential: −70 mV; amplifier: GeneClamp500B; Axon Instruments, Foster City, Calif.). Unless otherwise indicated, oocytes were superfused with Ringer solution (physiological saline) at a rate of ˜1 mL/min. The experiments of FIGS. 35d-e, 36c-e and 47 involved periods of static bathing, i.e., halted superfusion. The γ2(A79C) subunit was prepared by site-directed mutagenesis. Oocyte electrophysiological experiments were carried out in room light. A UV light-emitting diode (peak wavelength: 365 nm; Hamamatsu Photonics, Japan) and a microscope illuminator (white light; Schott Fostec, Auburn, N.Y.) provided UV and visible stimulating light. As measured at the position of the oocyte, the intensity of the UV light at 365 nm was 220 μW/mm^2. At 440 nm, the nominal strength of the visible (white) light (referred to as high-intensity visible light) was 28 μW/mm^2, and that of the ambient room illumination was 0.045 μW/mm^2. In all experiments, low-intensity visible light from the microscope illuminator (3 μW/mm^2 at 440 nm) was present at all times except those involving high-intensity visible illumination. Electrophysiological data were obtained using Clampex 8.2 (Axon Instruments), analyzed using Clampfit 10.0 (Axon Instruments) and OriginPro7.5 (OriginLab, Northampton, Mass.). All statistical analysis employed a two-sample t-test.

[7] = 2.0 mM in DMSO-d6, before illumination
[8] = after UV illumination for 5 min
[9] = after UV, then visible light for 10 min

Structure (SMILES): CC(C)c1cc(CCCC(=O)NCc2ccc(/N=N/c3ccc(C(=O)NCCN)cc3)cc2)cc(C(C)C)c1O [MPC088, (E)-N-(2-Aminoethyl)-4-((4-((4-(4-hydroxy-3,5-diisopropylphenyl)butanamido)methyl)phenyl)diazenyl)benzamide]
- potentiating factor (peak amplitude relative to the 10 μM GABA response) ([1]; 5 μM with 10 μM GABA and 100 μM TPMPA): 1.73±0.01
- potentiating factor (peak amplitude relative to the 10 μM GABA response) ([1]; 15 μM with 10 μM GABA and 100 μM TPMPA): 3.26±0.42
- cis-isomer content (1H NMR) [2, 7]: 6%
- trans-isomer content (1H NMR) [2, 7]: 94%
- time constant of absorbance change at 338 nm ([2]; UV light, nominal intensity): 1.7 ± 0.3 s
- cis-isomer content (1H NMR) [2, 8]: 91%
- trans-isomer content (1H NMR) [2, 8]: 9%
- cis-isomer content (1H NMR) [2, 9]: 19%
- trans-isomer content (1H NMR) [2, 9]: 81%
- time constant of absorbance change at 338 nm ([2]; reduced-intensity UV light (10% of nominal)): 22 ± 3 s
- time constant of absorbance change at 338 nm ([2]; visible light): 36 ± 2 s
- mean ratio of absolute current magnitude in response to blue→UV/UV→blue [3]: 1.00±0.01
- logP [4]: > 6
- response enhancement [5]: 4.4±1.3 fold
- GABAAR potentiating and direct agonist activities relative to parent propofol [6]: more than an order of magnitude
- rate constant 1/τ of UV-induced decrease in membrane current (de-potentiation) ([6]; 10-fold reduced UV intensity): 0.13 ± 0.02 s⁻¹
- rate constant 1/τ of UV-induced decrease in membrane current (de-potentiation) ([6]; nominal UV intensity): 0.43 ± 0.09 s⁻¹
- potentiation of the GABA response ([6]; co-applied 3 μM GABA, MPC088 1 μM, MPD021 10 or 100 μM, MPC100 10 μM): markedly potentiated the GABA response
- maximum current of direct activation relative to the 100 μM GABA response ([6]; compound alone): comparable with the peak current elicited by 100 μM GABA
- lowest concentration at which direct activation response is clearly evident ([6]; compound alone, no GABA): 4 µM
- potency in direct activation relative to propofol ([6]; concentrations required for peak current equal to 40% of the 100 μM GABA-alone response): ~25 fold
